Laboratory results taken from article PMC11436104 (Toxins, 2024).
Where two headings read alike, the source gives them in different places. *1 amine or outer side, *2 acyl side, *3 side chain or, on linkers, in order; H or OH if unused. Where a SMILES comes first, the peptide text is derived from it. Bridges are numbered along the chain shown (N, C = ends). [ ]: non-standard residue; d: D form. Adda = CO[C@@H](Cc1ccccc1)[C@@H](C)/C=C(C)/C=C/[C@H](N[*:1])[C@H](C)C(=O)[*:2]; dAsp(3S-Me) = C[C@H](C(=O)[*:3])[C@@H](N[*:1])C(=O)[*:2]; d(γGlu) = O=C(O)[C@@H](CCC(=O)[*:2])N[*:1]; hTyr = N[C@@H](CCc1ccc(O)cc1)C(=O)O; NMeA = CN[C@@H](C)C(=O)O; NMeDha = C=C(NC)C(=O)O; CO = O=C([*:1])[*:2]

Experiments:
NHAs [1] = experiment: Intermediate filament immunostaining (nestin, GFAP), confocal microscopy; type: cell-based, human
Protocol: (§1) For the intermediate filaments, visualization at 1 µM MC-LR was used as the positive control. The cells were stained with rabbit monoclonal anti-GFAP (Merck Millipore, Bedford, MA, USA, Cat. # AB5804) and secondary Alexa-488 goat anti-rabbit IgG (Molecular Probes, Cat. # A-11034) antibodies and with mouse monoclonal anti-nestin (Merck Millipore, Cat. # MAB5326) and secondary Alexa-488 goat anti-mouse IgG (Molecular Probes, Cat. # A-11017) antibodies.
(§2) The cells in all the experiments were exposed to the CCPs for an additional 24 h in the CO2 incubator at 37 °C in a 5% CO2 atmosphere before they were fixed.
(§3) Fixing and staining. The cells were washed in phosphate-buffered saline (PBS) and fixed in 3.7% paraformaldehyde in either PBS (37 °C, 30 min; for microfilaments, microtubules, nestin) or in ice-cold methanol (4 °C, 10 min; for GFAP, desmoplakin I+II). Then the cells were permeabilized in PBS containing 0.1% Triton X-100 (v/v; Merck, Germany) for 20 min and blocked in 4% bovine serum albumin (Sigma) at room temperature for 10 min. For desmoplakin I+II visualization, the cells were blocked in 10% fetal bovine serum (Sigma) for 60 min without cell permeabilization. Microfilaments were stained with rhodamine-conjugated phalloidin (1:40) for 30 min at room temperature. Microtubules were visualized by immunostaining using an anti-α-tubulin antibody overnight at 4 °C (1:200 in PBS containing Ca^2+, 0.1% [v/v] Tween-20) and the secondary antibodies labeled with Alexa-488 goat anti-mouse IgG (1:1000; 30 min at room temperature). Intermediate filaments were stained using anti-nestin (1:500; overnight at 4 °C) and anti-GFAP (1:500, overnight at 4 °C) antibodies. The anti-nestin-labeled cells were visualized using secondary antibodies labeled with Alexa-488 goat anti-mouse IgG and the anti-GFAP-labeled cells with Alexa-488 anti-rabbit IgG (1:1000 dilution, room temperature, 30 min). Desmoplakin I+II were stained with a mouse anti-desmoplakin I+II antibody (1:500 dilution; room temperature, 60 min) and visualized with Alexa-488 goat anti-mouse IgG (1:1000 dilution; room temperature, 30 min). The cell nuclei were stained with To-Pro-3 (Molecular Probes; 1:1000 dilution; room temperature, 30 min). After each step, the samples were washed three times with PBS. Finally, all the cell preparations were immersed in an antifade reagent (Prolong Gold; Molecular Probes) to prevent photobleaching.
(§4) Microscopy. […] The cell preparations were also examined under light microscopy (Eclipse TE 3000; Nikon, Japan), and the images were recorded under phase contrast and epifluorescence (i.e., B-2A and G-2A filters, respectively).

U87-MG cells [2] = experiment: as above; type: cell-based, human
Protocol: as §1, §2, §3, §4

U87-MG cells [3] = experiment: MTT metabolic activity / cell viability; type: cell-based, human
Protocol: Normal human astrocytes (NHAs; Lonza, Walkersville, MD, USA) were grown and maintained in monolayer cultures in Dulbecco’s modified Eagle’s medium (DMEM; Sigma) supplemented with 10% fetal bovine serum (Euroclone, Pero, MI, Italy), 1% penicillin/streptomycin (Euroclone), 2 mM L-glutamine (Euroclone), and 20 mM Hepes (Invitrogen, Carlsbad, CA, USA). The U87-MG human glioblastoma cells (U87-MG cells; American Type Culture Collection, Manassas, VA, USA) were grown and maintained in monolayer cultures in DMEM supplemented with 10% fetal bovine serum, 1% penicillin/streptomycin, 4 mM L-glutamine, and 1% non-essential amino acids (Sigma).
Cell viability was determined using the 3-(4,5-dimethylthiazolyl-2)-2,5-diphenyltetrazolium bromide (MTT) assay, as according to Mosmann. This assay measures the conversion of MTT to its insoluble formazan by the dehydrogenase enzymes of the intact mitochondria of living cells. […]; Nunclon; Nunc, Naperville, IL, USA) and incubated for 16 h at 37 °C for attachment. […] The amount of formazan, which is proportional to the metabolic activity of cells, was quantified spectrophotometrically at 570 nm (reference filter wavelength, 690 nm) using a microplate reader (Synergy MX; BioTek, Winooski, VT, USA). The metabolic activity of the cells was determined by comparing the optical densities of the CCP-treated cells with those of the negative control. […]

U87-MG cells [4] = experiment: Cell morphology, light microscopy (phase contrast); type: cell-based, human
U87-MG cells [5] = experiment: Cytoskeleton immunostaining (microfilaments, microtubules), confocal microscopy; type: cell-based, human; settings: 10 µM, 24 h
Protocol: (§5) To determine the influence of the CCPs on actin microfilament and microtubule organization, the cells were labeled with rhodamine-conjugated phalloidin (Molecular Probes, Cat. # R415), and mouse monoclonal anti-bovine α-tubulin antibodies (Molecular Probes Cat. # A11126) and secondary Alexa-488 goat anti-mouse IgG (Molecular Probes Cat. # A-11017), respectively. The cells (3000/well) were plated into 16-well plates (Culture Well Chambered Coverglass for Cell Culture; […].
as §2, §3, §4

NHAs [6] = experiment: as above; type: cell-based, human; settings: 10 µM, 24 h
Protocol: as §5, §2, §3, §4

[7] = Interaction with the air–water interface (Langmuir trough, no lipids); type: physicochemical; settings: absence of lipids, 0–30 µM injected, 25 °C, pH 7.5
Protocol: Lateral pressure measurements were carried out in a Langmuir trough (MicroTrough-S system; Kibron, Helsinki, Finland) at room temperature (25 °C) under constant stirring. The aqueous sub-phase was 500 µL 10 mM Hepes, 200 mM NaCl, and pH 7.5.

## C=C1C(=O)N[C@H](C)C(=O)N[C@@H](CC(C)C)C(=O)N[C@@H](C(=O)O)[C@H](C)C(=O)N[C@@H](CCCNC(=N)N)C(=O)N[C@@H](/C=C/C(C)=C/[C@H](C)[C@H](Cc2ccccc2)OC)[C@H](C)C(=O)N[C@@H](C(=O)O)CCC(=O)N1C [MC-LR, Microcystin-LR, reference compound] (R[Adda][d(γGlu)][NMeDha][dA]L[dAsp(3S-Me)]-OH; lactam N-7)
NHAs [1]
  nestin organization: most intense nestin concentration
U87-MG cells [2]
  GFAP filament organization: concentration of the GFAP filaments was observed along the entire cell body
U87-MG cells [3]
  mean decrease in viability: 15%
  viability vs control: not significantly changed
U87-MG cells [4]
  morphological changes under light microscopy: loss of astrocytic domain organization, but also in a reduction in cell numbers

## CC[C@H](C)[C@@H]1NC(=O)[C@H](NC(=O)N[C@@H](CCCNC(=N)N)C(=O)O)CCCCNC(=O)[C@H](Cc2ccccc2)NC(=O)[C@H](C)N(C)C(=O)[C@H](CCc2ccc(O)cc2)NC1=O [anabaenopeptin F] ({Arg-CO}-[dK]I[hTyr][NMeA]F; lactam 1-C)
U87-MG cells [5]
  microfilament (actin) organization: actin aggregation

## CC[C@H](C)[C@@H]1NC(=O)[C@H](Cc2ccc(OC)cc2)N(C)C(=O)[C@H]([C@@H](C)O)N2C(=O)[C@H](CC[C@H]2O)NC(=O)[C@H](CC(C)C)NC(=O)[C@@H](NC(=O)[C@H](CCC(N)=O)NC(=O)[C@H](CCc2ccc(O)cc2)NC(=O)[C@@H](O)CO)[C@@H](C)OC1=O
U87-MG cells [2]; U87-MG, 24 h
  GFAP filament organization: concentration of the GFAP filaments was observed along the entire cell body
NHAs [6]
  microfilament and microtubule organization: strong cytolytic effects on the NHAs, with the collapse of the microfilaments in the center of the cell
U87-MG cells [5]
  microfilament (actin) organization: aggregation of the cortical microfilaments along the basal membrane and degradation of the membrane ruffles
  microtubule organization: the microtubules were reorganized and concentrated around the nucleus
[7]
  concentration at which saturation of the air–water interface was observed: 25 µM

## CC(C)[C@@H]1NC(=O)[C@H](NC(=O)N[C@@H](CCCNC(=N)N)C(=O)O)CCCCNC(=O)[C@H](Cc2ccccc2)NC(=O)[C@H](C)N(C)C(=O)[C@H](CCc2ccc(O)cc2)NC1=O [anabaenopeptin B] ({Arg-CO}-[dK]V[hTyr][NMeA]F; lactam 1-C)
NHAs [1]; NHAs, 24 h
  GFAP immunolabeling, cell shape: characteristic twisted outgrowths
